Measurements from patent publication EP4168403B1 (priority 2020, dated 2021).

Experiments:
[1] = Oxygen Radical Absorbance Capacity (ORAC-FL) assay; conditions: Trolox equivalents (µmol of Trolox equivalent/µmol of compound)
Experimental: The radical scavenging capacity of the TFAHs was determined by the ORAC-FL method using fluorescein as a fluorescent probe^33,34. (±)-6-Hydroxy-2,5,7,8-tetramethylchromane-2-carboxylic acid (Trolox), fluorescein (FL) and 2,2'-azobis(amidinopropane) dihydrochloride (AAPH) were purchased from Sigma-Aldrich. A Varioskan Flash plate reader with built-in injectors (Thermo Scientific) was used. The reaction was carried out at 37 °C in 75 mM phosphate buffer (pH= 7.4), and the final volume reaction mixture was 200 µL. The tested compounds and Trolox standard were dissolved in DMSO to 10 mM and further diluted in 75 mM phosphate buffer (pH= 7.4). The final concentrations were 0.1-1 µM for the tested compounds and 1-8 µM for Trolox standard. The blank was composed of 120 µL of FL, 60 µL of AAPH and 20 µL of phosphate buffer (pH=7.4) and was added in each assay.
The net AUC corresponding to a sample was calculated as follows: Net AUC = AUCantioxidant −AUCblank . [formula]
Regression equations were calculated by plotting the net AUC against the antioxidant concentration. The ORAC value was obtained by dividing the slope of the latter curve between the slope of the Trolox curve obtained in the same assay. Final ORAC values were expressed as µmol of Trolox equivalent/µmol of TFAH.

[2] = tested on: voltage-gated Ca^2+ channels (VGCC); test: Calcium channel antagonist assay (K+-evoked cytosolic Ca2+, Fluo-4); format: cell-based; conditions: SH-SY5Y cells, K+ 70 mM, mean ± SEM, read-out: IC50 (µM) Calcium channels blockade
Experimental: The cytosolic Ca^2+ has been measured in SH-SY5Y cells. SH-SY5Y cells were maintained similarly to what was previously described^30. Free cytosolic Ca^2+ was measured using the fluorescent Ca^2+ indicator Fluo-4/AM (Fluo-4 acetomethoxyester). SH-SY5Y cells were seeded onto 96-well black plates at a density of 10^5 cells per well, achieving confluence after 48 h. Cells were washed with Krebs-Hepes solution (KH, in mM: 144 NaCl, 5.9 KCl, 1.2 MgCl2, 2 CaCl2, 11 D-glucose, 10 HEPES, pH 7.4). Cells were loaded with 10 µM Fluo-4/AM and 0.2% pluronic acid in KH and incubated for 45 min at 37 °C in the dark. Then, cells were washed twice with KH to remove the excess of probe. Tested compounds were incubated 10 min before K+ 70 mM was applied to evoke the increment of cytosolic Ca^2+. To normalize Fluo-4 signals, Triton X-100 (5%) and 1 M MnCl2 were applied to register both maximal and minimal fluorescence, respectively. The experiments were analyzed at excitation and emission wavelengths of 485 and 520 nm, respectively, and fluorescence was measured in a fluorescence microplate reader (FLUOstar Optima, BMG, Germany). Data were calculated as a percentage of Fmax - Fmin.
The blocking effect of the depolarization-induced Ca^2+ uptake was investigated in SH-SY5Y neuroblastoma cells stimulated with an extracellular concentration of K+ 70 mM, which induces the cell Ca^2+ levels elevation by opening voltage-gated Ca^2+ channels (VGCC), monitored with the Ca^2+-sensitive fluorescent dye Fluo-4. Nifedipine was used as positive standard.

[3] = target: T1, Human red-blood cell acetylcholinesterase (hAChE; EC 3.1.1.7) (Homo sapiens, UniProt P22303); test: biochemical; conditions: pH 7.4, 37 °C, mean ± SEM, read-out: AChE (IC50 µM)
T1 construct: Human red-blood cell acetylcholinesterase; purchased Sigma-Aldrich (Prague, Czech Republic); host or cells: human red blood cells
Experimental: The AChE and BuChE inhibitory activity of the tested compounds was determined using a modified Ellman's method^31, 32.Human red-blood cell acetylcholinesterase (hAChE; EC 3.1.1.7), and human recombinant butyrylcholinesterase (hBuChE; EC 3.1.1.8), 5,5'-dithiobis(2-nitrobenzoic acid) (Ellman's reagent, DTNB), phosphate buffer (PB, pH 7.4), acetylthiocholine (ATC), and butyrylthiocholine (BTC), were purchased from Sigma-Aldrich (Prague, Czech Republic). Nunc polystyrene 96-well microplates with flat-bottom shape (ThermoFisher Scientific, USA) were used for the measurement and all the assay were carried out in 0.1 M KH2PO4/K2HPO4 buffer, pH 7.4. Enzyme solution was prepared at activity 2.0 units/mL in 2 mL aliquots. The assay mixture (100 µL) consisted of 40 µL of 0.1 M phosphate buffer (pH 7.4), 20 µL of 0.01 M DTNB, 10 µL of enzyme, and 20 µL of 0.01 M substrate (ATC iodide solution). Tested compounds were dissolved first in methanol (BIGI 23 in DMSO) and then further diluted by assay buffer to the final concentration. […] Enzyme with the inhibitor was preincubated for 5 min in the assay mixture and then the reaction was started by addition of 20 µL of substrate (ATC for AChE, BTC for BuChE). […] Each concentration was assayed in triplicate. The obtained data were used to compute the percentage inhibition (I; Equation 1): I = 1−(ΔAi)/(ΔA0) [%] [formula] ΔAi indicates the absorbance change provided by cholinesterase exposed to AChE inhibitors and ΔA0 indicates absorbance change caused by intact cholinesterase (phosphate buffer was used instead of AChE inhibitor solution).

[4] = target: T2, human recombinant butyrylcholinesterase (hBuChE; EC 3.1.1.8) (Homo sapiens, UniProt P06276); test: Cholinesterase inhibition in vitro assay (modified Ellman's method), BuChE; format: biochemical; conditions: pH 7.4, 37 °C, mean ± SEM, read-out: BChE (IC50 µM)
T2 construct: purchased Sigma-Aldrich (Prague, Czech Republic)
Experimental: The AChE and BuChE inhibitory activity of the tested compounds was determined using a modified Ellman's method^31, 32.Human red-blood cell acetylcholinesterase (hAChE; EC 3.1.1.7), and human recombinant butyrylcholinesterase (hBuChE; EC 3.1.1.8), 5,5'-dithiobis(2-nitrobenzoic acid) (Ellman's reagent, DTNB), phosphate buffer (PB, pH 7.4), acetylthiocholine (ATC), and butyrylthiocholine (BTC), were purchased from Sigma-Aldrich (Prague, Czech Republic). Nunc polystyrene 96-well microplates with flat-bottom shape (ThermoFisher Scientific, USA) were used for the measurement and all the assay were carried out in 0.1 M KH2PO4/K2HPO4 buffer, pH 7.4. Enzyme solution was prepared at activity 2.0 units/mL in 2 mL aliquots. The assay mixture (100 µL) consisted of 40 µL of 0.1 M phosphate buffer (pH 7.4), 20 µL of 0.01 M DTNB, 10 µL of enzyme, and 20 µL of 0.01 M substrate (ATC iodide solution). Tested compounds were dissolved first in methanol (BIGI 23 in DMSO) and then further diluted by assay buffer to the final concentration. […]. […] Enzyme with the inhibitor was preincubated for 5 min in the assay mixture and then the reaction was started by addition of 20 µL of substrate (ATC for AChE, BTC for BuChE). The enzyme activity was determined by measuring the increase in absorbance at 412 nm at 37 °C at 2 min intervals using a Multi-mode microplate reader Synergy 2 (Vermont, USA). Each concentration was assayed in triplicate. The obtained data were used to compute the percentage inhibition (I; Equation 1): I = 1−(ΔAi)/(ΔA0) [%] [formula] ΔAi indicates the absorbance change provided by cholinesterase exposed to AChE inhibitors and ΔA0 indicates absorbance change caused by intact cholinesterase (phosphate buffer was used instead of AChE inhibitor solution). […] Calculations were performed using software Microsoft Excel (Redmont, WA, USA) and GraphPad Prism version 5.02 for Windows, GraphPad Software, San Diego, CA, USA.

mice = test: Object Recognition task (ORT), scopolamine-induced memory impairment; format: in vivo; conditions: 1 mg/kg intraperitoneally with scopolamine 0.5 mg/kg
Experimental: For behavioural studies, 50 swiss female 10-week-old weighing 25-30 g were used. Memory impairment was induced by the potent antimuscarinic drug scopolamine hydrobromide (0.5 mg/kg, Sigma) dissolved in saline buffer. To explore the potential of BIGI-3h as a cognitive enhancer, the compound was administered at a dose of 1 mg/kg and 10 mg/kg. For comparison, the antiamnesic effect of donepezil was tested (Tocris Bioscience, R&D Systems Inc.) at a dose of 1 mg/kg. Both products, 3h and donepezil, were dissolved in saline buffer containing 3.6% dimethyl sulfoxide. All drug solutions were independently prepared immediately before their use and were administered intraperitoneally in 10 mL/kg of vehicle volume. Different batches of mice were used for each experiment. The animals were distributed into 5 experimental groups (I-V): control groups (I) mice administered 3.6% DMSO in saline buffer, labelled as "control vehicle"; experimental groups (II-V) consisted of (II) mice administered scopolamine dissolved in 3.6% DMSO in saline buffer, labelled as "scop/DMSO," (III) mice co-administered scopolamine plus Donepezil, labelled as "Scopo/donep," (IV) and (V) mice co-administrated scopolamine plus BIGI-3h at 1mg/Kg and 10mg/Kg labelled respectively "Scopo/3h 1" "Scopo/3h 10".
Spontaneous object recognition was tested as described previously, 28 with slight modifications. All behavioural experiments took place during the light phase of the 12-h light/ dark cycle between 10 am and 3 pm to minimize the influence of circadian rhythm, and they were conducted with the investigators blind to treatments. […] The total time spent in active exploration of each object during T1 and T2 was determined with a computerized tracking system and image analyzer (Ethovision XT, Noldus Information Technology) that tracked the nose, centre and tail points of each mouse^45. As a criterion of active object exploration, it was measured the time spent by the animal directing its nose to the object at a distance of less than 2 cm and/or touching it with the vibrissae or nose. […]

Tau(306-336) peptide = Tau(306-336) peptide (Homo sapiens, UniProt P10636); conditions: Tau(306-336) 50 µM, inhibitor 50 µM (1:1 ratio); mean ± SEM
Chain of Tau(306-336) peptide (P10636 623-653 limits assumed): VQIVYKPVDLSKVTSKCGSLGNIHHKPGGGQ
Experimental: Subsequently, the sample was aliquoted dried and stored at -20 °C.
Fluorescence data were recorded every 10 min overnight with 1 min shaking at 800 rpm prior to each reading. Each inhibitor was assayed in triplicates in at least two independent experiments. […] Inhibition % are expressed as the mean ± SEM. […] Values were averaged and the presented values are expressed as the mean ± SEM.
Fluorescence data were recorded every 10 min overnight with 1 min shaking at 800 rpm prior to each reading.

T2 sequence (P06276 29-602): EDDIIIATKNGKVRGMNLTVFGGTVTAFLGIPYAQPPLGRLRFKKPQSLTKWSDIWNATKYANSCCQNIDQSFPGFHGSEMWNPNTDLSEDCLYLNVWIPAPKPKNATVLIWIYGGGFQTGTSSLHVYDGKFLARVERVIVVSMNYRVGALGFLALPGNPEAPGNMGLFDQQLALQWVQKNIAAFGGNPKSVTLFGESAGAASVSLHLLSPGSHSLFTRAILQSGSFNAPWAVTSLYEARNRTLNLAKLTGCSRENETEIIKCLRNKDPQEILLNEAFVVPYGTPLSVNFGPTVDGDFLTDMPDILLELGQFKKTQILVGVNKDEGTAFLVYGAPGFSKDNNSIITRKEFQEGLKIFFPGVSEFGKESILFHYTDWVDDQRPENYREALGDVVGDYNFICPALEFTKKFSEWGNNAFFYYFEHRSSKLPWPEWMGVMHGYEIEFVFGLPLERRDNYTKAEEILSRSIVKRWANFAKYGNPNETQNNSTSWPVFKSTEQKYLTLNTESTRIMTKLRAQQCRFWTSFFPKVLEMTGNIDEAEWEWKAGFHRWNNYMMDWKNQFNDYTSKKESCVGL
T1 sequence (P22303 32-617 isoform P22303-2 limits assumed): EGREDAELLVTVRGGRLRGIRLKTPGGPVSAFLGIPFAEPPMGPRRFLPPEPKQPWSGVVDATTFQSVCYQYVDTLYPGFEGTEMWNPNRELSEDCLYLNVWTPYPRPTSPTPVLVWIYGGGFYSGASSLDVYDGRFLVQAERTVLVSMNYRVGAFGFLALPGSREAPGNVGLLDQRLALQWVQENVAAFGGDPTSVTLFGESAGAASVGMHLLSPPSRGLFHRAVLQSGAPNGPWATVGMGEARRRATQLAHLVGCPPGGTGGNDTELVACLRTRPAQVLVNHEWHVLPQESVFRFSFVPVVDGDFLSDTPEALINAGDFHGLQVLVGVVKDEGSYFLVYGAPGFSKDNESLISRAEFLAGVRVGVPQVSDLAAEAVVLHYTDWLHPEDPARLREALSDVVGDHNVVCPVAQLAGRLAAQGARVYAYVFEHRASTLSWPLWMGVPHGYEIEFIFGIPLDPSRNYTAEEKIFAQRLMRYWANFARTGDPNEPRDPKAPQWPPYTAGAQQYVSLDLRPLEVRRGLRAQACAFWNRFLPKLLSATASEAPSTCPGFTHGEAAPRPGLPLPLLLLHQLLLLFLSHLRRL

Compound | ORAC [1] [TE] | IC50 [2] [µM] | IC50 [3] [µM] | IC50 [4] [µM] | recognition index / discrimination index (Figure 5) (mice) | Inhibition of T (306-336) peptide self - aggregation (%) (Tau(306-336) peptide)
CCOC(=O)C1=C(C)N(CCCC2CCN(Cc3ccccc3)CC2)C(=O)NC1c1coc2c(Cl)cc(Cl)cc2c1=O (stereo not shown) [BIGI-3m, ethyl 1-(3-(1-benzylpiperidin-4-yl)propyl)-4-(6,8-dichloro-4-oxo-4H-chromen-3-yl)-6-methyl-2-oxo-1,2,3,4-tetrahydropyrimidine-5-carboxylate] | 3.29± 0.10 | 5 ± 2 | 0.34 ± 0.02 | 14.4 ± 1.2 |  | 
CCOC(=O)C1=C(C)N(CCCC2CCN(Cc3ccccc3)CC2)C(=O)NC1c1coc2ccc(C(C)C)cc2c1=O (stereo not shown) [BIGI-3n, ethyl 1-(3-(1-benzylpiperidin-4-yl)propyl)-4-(6-isopropyl-4-oxo-4H-chromen-3-yl)-6-methyl-2-oxo-1,2,3,4-tetrahydropyrimidine-5-carboxylate] | 2.45± 0.04 | 1.7 ± 0.4 | 0.58 ± 0.02 | 4.35 ± 0.23 |  | 
COc1cc2c(cc1OC)C(=O)C(CC1CCN(Cc3ccccc3)CC1)C2 (stereo not shown) [donepezil, reference compound] |  |  |  |  | reversed the short-term memory impairment induced by scopolamine | 
Nc1c2c(nc3ccccc13)CCCC2 [tacrine, reference compound] |  |  |  |  |  | not able to significantly interfere
